This is an account of results in US20240246918A1, “COMPOUNDS AND COMPOSITIONS AS EIF4E INHIBITORS AND THE USES THEREOF” (Ribometrix, Inc., priority 2022, published 2024).

One experiment deals with T1, human eIF4E protein (Homo sapiens, UniProt P06730).
T1 construct: purchased Novus NBP-45314
As to the kind of experiment: Biochemical competitive binding assay (TR-FRET competition, EDA-m7GDP-ATTO-647N probe). As to conditions: read-out: hEIF4E TR-FRET IC50. The procedure, abridged: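 IC50 values come from 4-parameter fits of the normalized 665/620 nm TR-FRET ratio. Compound was first incubated 15 min with 4 nM recombinant His-eIF4E bound to 2.5 nM Eu-anti-His antibody, then 15 min with 5 nM m7GDP-ATTO-647N tracer, in pH 7.5 HEPES buffer with 100 mM KCl, Tween-20 and BSA.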
For orientation: In TR-FRET formats the signal depends on donor and acceptor labels being close together.

In experiment [1] the test system is cap-dependent translation in Flp-In-293 reporter cells. As to the kind of experiment: Cellular cap-dependent translation inhibition assay (dual luciferase assay, DLA; Fluc/Rluc ratio, 24 hours). Format: cell-based.
Experiment [2] concerns COLO 205 colorectal tumor cells. As to the kind of experiment: Tumor cell viability inhibition assay (CellTiter-Glo 2.0, 72 hours). The format is cell-based. As to conditions: COLO 205 cell viability. An outline of the steps:
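IC50 derived by 4-parameter fitting after normalizing luminescence to DMSO and max-inhibition wells. Compounds tested as 11 concentrations in 4-fold steps on COLO 205 cells seeded at 1500 per well in RPMI-1640/10% FBS; ATP content measured with CellTiter-Glo 2.0 after 72 h.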

The mark [3] stands for this setting: dual luciferase assay, Flp-In-293 reporter cells, 24 hours, Fluc/Rluc ratio, read-out: DLA 205 IC50.
The mark [4] stands for this setting: Homo sapiens, Flp-In-293, 24 h, dual luciferase assay, Flp-In-293 reporter cells, 24 hours, Fluc/Rluc ratio, read-out: DLA 205 IC50.
Setting [5] is: read-out: DLA 205 IC50, dual luciferase assay, Flp-In-293 reporter cells, 24 hours, Fluc/Rluc ratio.
The mark [6] stands for this setting: Homo sapiens, Flp-In-293, 24 h, read-out: DLA 205 IC50, dual luciferase assay, Flp-In-293 reporter cells, 24 hours, Fluc/Rluc ratio.

Structures are written as SMILES. Where two headings read alike, the source gives them in different places.

T1 sequence (P06730 whole entry): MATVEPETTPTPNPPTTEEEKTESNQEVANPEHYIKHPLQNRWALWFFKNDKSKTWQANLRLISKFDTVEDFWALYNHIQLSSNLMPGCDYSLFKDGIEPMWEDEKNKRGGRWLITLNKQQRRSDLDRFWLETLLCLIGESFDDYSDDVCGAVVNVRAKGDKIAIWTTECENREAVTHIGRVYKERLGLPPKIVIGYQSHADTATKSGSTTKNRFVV

For the compound `Cc1nc2c(c(=O)n1CC#Cc1ccc(Cl)cc1-c1ccnc3c(C(=O)O)csc13)CC(N1CCCCC1)CC2` (single isomer, unassigned) [Compound 299], the results for the IC50 (on human eIF4E protein; in experiment [1] (setting [3]); in experiment [2]) were below 0.1 µM, 1 to 5 µM and 5 to 20 µM, respectively.
As to `COC1CN(C2CCc3nc(C)n(CCOc4ccc(Cl)cc4-c4cc(C)nc5c(C(=O)O)csc45)c(=O)c3C2)C1` (stereo not drawn) [Compound 28], the IC50 at human eIF4E protein is below 0.1 µM; in experiment [1] (setting [4]), below 1 µM; in experiment [2] (Homo sapiens, COLO 205, 72 h), below 5 µM.
Take `Cc1cc(-c2cc(Cl)ccc2OCCn2c(C)nc3c(c2=O)CC(N(C)Cc2ccncc2)CC3)c2sccc2n1` (stereo not drawn) [Compound 75]: the IC50 on human eIF4E protein is 0.5 to 5 µM; in experiment [1] (setting [4]), above 5 µM; in experiment [2] (Homo sapiens, COLO 205, 72 h) it was 5 to 20 µM.
In the same order, the values of `Cc1cc(-c2cc(Cl)ccc2OCCn2c(C)nc3c(c2=O)CC(N2CCC(F)(F)CC2)CC3)c2scc(C(=O)NS(C)(=O)=O)c2n1` (stereo not drawn) [Compound 52] are below 0.1 µM, below 1 µM and below 5 µM.
Regarding `COC(=O)c1csc2c(-c3cc(Cl)ccc3OCCn3c(C)nc4c(c3=O)CC(N(CC(F)(F)F)C3CC3)CC4)cc(C)nc12` (stereo not drawn) [Compound 353], the IC50 on human eIF4E protein was 0.5 to 5 µM; in experiment [1] (setting [4]) it was above 5 µM; in experiment [2] (Homo sapiens, COLO 205, 72 h), above 20 µM.
For `Cc1cc(-c2cc(Cl)ccc2OCCn2c(C)nc3c(c2=O)CC(N2CC(F)(F)C2)CC3)c2scc(C(=O)NS(C)(=O)=O)c2n1` (stereo not drawn) [Compound 56] the same measures were below 0.1 µM, 1 to 5 µM and 5 to 20 µM.
Consider `COC1CCc2nc(C)n(CCOc3ccc(Cl)cc3-c3cc(C)nc4c(C(=O)O)csc34)c(=O)c2C1` (single isomer, unassigned) [Compound 5], for which the IC50 is 0.1 to 0.5 µM on human eIF4E protein, above 5 µM in experiment [1] (setting [5]) and 5 to 20 µM in experiment [2].
With `Cc1cc(-c2cc(Cl)ccc2OCCn2c(C)nc3c(c2=O)CC(N2CC4COCC4C2)CC3)c2scc(C(=O)NS(C)(=O)=O)c2n1` (single isomer, unassigned) [Compound 359], the IC50 was below 0.1 µM at human eIF4E protein; below 1 µM in experiment [1] (setting [4]); below 5 µM in experiment [2] (Homo sapiens, COLO 205, 72 h).
On to `COC1CCc2nc(C)n(CCOc3ccc(Cl)cc3-c3cc(C)nc4c(C(=O)O)csc34)c(=O)c2C1` (stereo not drawn) [Compound 7], for which the figures for the IC50 (at human eIF4E protein; in experiment [1] (setting [6]); in experiment [2] (Homo sapiens)) were 0.1 to 0.5 µM, 1 to 5 µM and 5 to 20 µM, respectively.
As to `Cc1cc(-c2cc(Cl)ccc2OCCn2c(C)nc3c(c2=O)CC(N2CCC4(CN(C)C4)C2)CC3)c2scc(C(=O)O)c2n1` (stereo not drawn) [Compound 34], the IC50 at human eIF4E protein was below 0.1 µM; in experiment [1] (setting [4]), above 5 µM; in experiment [2] (Homo sapiens, COLO 205, 72 h), above 20 µM.
For `Cc1cc(-c2cc(Cl)ccc2OCCn2c(C)nc3c(c2=O)CC(N2CC4(COC4)C2)CC3)c2scc(C(=O)O)c2n1` (stereo not drawn) [Compound 20], the IC50 is below 0.1 µM on human eIF4E protein; below 1 µM in experiment [1] (setting [4]); below 5 µM in experiment [2] (Homo sapiens, COLO 205, 72 h).
For `Cc1cc(-c2cc(Cl)ccc2OCCn2c(C)nc3c(c2=O)C[C@@H](N2CCC[C@H](F)C2)CC3)c2scc(C(=O)O)c2n1` (single isomer, unassigned) [Compound 282] the same measures were below 0.1 µM, below 1 µM and below 5 µM.
For the compound `Cc1cc(-c2cc(Cl)ccc2OCCn2c(C)nc3c(c2=O)CC(N2CCCC(F)(F)C2)CC3)c2scc(C(=O)NS(C)(=O)=O)c2n1` (stereo not drawn) [Compound 81], the IC50 on human eIF4E protein was below 0.1 µM; in experiment [1] (setting [4]) it was below 1 µM; in experiment [2] (Homo sapiens, COLO 205, 72 h), below 5 µM.
In the case of `Cc1nc2c(c(=O)n1CC#Cc1ccc(Cl)cc1-c1ccnc3c(C(=O)O)csc13)CC(N(C)C)CC2` (single isomer, unassigned) [Compound 296], the IC50 at human eIF4E protein is 0.5 to 5 µM; in experiment [1] (setting [4]) it was above 5 µM; in experiment [2] (Homo sapiens, COLO 205, 72 h), above 20 µM.
For `Cc1cc(-c2cc(Cl)ccc2OCCn2c(C)nc3c(c2=O)CC(N2CC4CN(C)CC4C2)CC3)c2scc(C(=O)O)c2n1` (stereo not drawn) [Compound 27] the same measures were below 0.1 µM, above 5 µM and above 20 µM.
For `Cc1cc(-c2cc(Cl)ccc2OCCn2c(C)nc3c(c2=O)CC(N2CC(F)C2)CC3)c2scc(C(=O)O)c2n1` (stereo not drawn) [Compound 356] the same measures were below 0.1 µM, below 1 µM and below 5 µM.
In the same order, the values of `Cc1cc(-c2cc(Cl)ccc2OCCn2c(C)nc3c(c2=O)CC(N(C)CC2COC2)CC3)c2scc(C(=O)O)c2n1` (stereo not drawn) [Compound 29] are below 0.1 µM, below 1 µM and below 5 µM.
Turning to `Cc1cc(-c2cc(Cl)ccc2OCCn2c(C)nc3c(c2=O)CC(N2CCN(C)C(=O)C2)CC3)c2scc(C(=O)O)c2n1` (stereo not drawn) [Compound 95], the IC50 at human eIF4E protein was below 0.1 µM; in experiment [1] (setting [4]), above 5 µM; in experiment [2] (Homo sapiens, COLO 205, 72 h) it was above 20 µM.
In the same order, the values of `Cc1cc(-c2cc(Cl)ccc2OCCn2c(C)nc3c(c2=O)CC(N(C)C2CC2)CC3)c2scc(C(=O)NS(C)(=O)=O)c2n1` (single isomer, unassigned) [Compound 302] are below 0.1 µM, below 1 µM and below 5 µM.
In the same order, the values of `Cc1cc(-c2cc(Cl)ccc2OCCn2c(C)nc3c(c2=O)CC(N(C)c2ccncc2)CC3)c2scc(C(=O)O)c2n1` (stereo not drawn) [Compound 47, 7-[5-chloranyl-2-[2-[2-methyl-6-[methyl(4-pyridyl)amino]-4-oxidanylidene-5,6,7,8-tetrahydroquinazolin-3-yl]ethoxy]phenyl]-5-methyl-thieno[3,2-b]pyridine-3-carboxylic acid; 2,2,2-tris(fluorenyl)acetic acid] are below 0.1 µM, above 5 µM and above 20 µM.
On to `Cc1nc2c(c(=O)n1CC#Cc1ccc(Cl)cc1-c1ccnc3c(C(=O)O)csc13)C[C@H](N1CC[C@H](F)C1)CC2` (single isomer, unassigned) [Compound 294], for which the IC50 on human eIF4E protein is below 0.1 µM; in experiment [1] (setting [4]), below 1 µM; in experiment [2] (Homo sapiens, COLO 205, 72 h), below 5 µM.
Consider `Cc1cc(-c2cc(Cl)ccc2OCCn2c(C)nc3c(c2=O)CC(N2CCC(F)(F)C2)CC3)c2scc(C(=O)NS(C)(=O)=O)c2n1` (stereo not drawn) [Compound 60], for which the IC50 was below 0.1 µM on human eIF4E protein; below 1 µM in experiment [1] (setting [4]); below 5 µM in experiment [2] (Homo sapiens, COLO 205, 72 h).
In the same order, the values of `Cc1nc2c(c(=O)n1CC#Cc1ccc(Cl)cc1-c1ccnc3c(C(=O)O)csc13)CC(N(C)C1CC(F)(F)C1)CC2` (stereo not drawn) [Compound 86] are below 0.1 µM, below 1 µM and below 5 µM.
On to `Cc1cc(-c2cc(Cl)ccc2OCCn2c(C)nc3c(c2=O)CC(N(C)C2CC2)CC3)c2scc(C(=O)NS(C)(=O)=O)c2n1` (single isomer, unassigned) [Compound 303], for which the IC50 at human eIF4E protein is below 0.1 µM; in experiment [1] (setting [3]), below 1 µM; in experiment [2], below 5 µM.
On to `Cc1cc(-c2cc(Cl)ccc2OCCn2c(C)nc3c(c2=O)C[C@@H](N2CC[C@@H](F)C2)CC3)c2scc(C(=O)NS(C)(=O)=O)c2n1` (single isomer, unassigned) [Compound 312], for which the IC50 on human eIF4E protein is below 0.1 µM; in experiment [1] (setting [4]), below 1 µM; in experiment [2] (Homo sapiens, COLO 205, 72 h) it was below 5 µM.
Regarding `Cc1cc(-c2cc(Cl)ccc2OCCn2c(C)nc3c(c2=O)CC(N(C)CCOC(F)(F)F)CC3)c2scc(C(=O)O)c2n1` (stereo not drawn) [Compound 41], the IC50 is below 0.1 µM on human eIF4E protein; below 1 µM in experiment [1] (setting [4]); below 5 µM in experiment [2] (Homo sapiens, COLO 205, 72 h).
As to `Cc1cc(-c2cc(Cl)ccc2OCCn2c(C)nc3c(c2=O)CC(N(C)CC2(C)COC2)CC3)c2scc(C(=O)O)c2n1` (single isomer, unassigned) [Compound 345], the IC50 at human eIF4E protein is below 0.1 µM; in experiment [1] (setting [3]), below 1 µM; in experiment [2], 5 to 20 µM.
For the compound `Cc1cc(-c2cc(Cl)ccc2OCCn2c(C)nc3c(c2=O)CC(N2CCN(C)C(=O)C2)CC3)c2scc(C(=O)NS(C)(=O)=O)c2n1` (stereo not drawn) [Compound 88], the IC50 at human eIF4E protein is below 0.1 µM; in experiment [1] (setting [4]), above 5 µM; in experiment [2] (Homo sapiens, COLO 205, 72 h) it was above 20 µM.
With `Cc1cc(-c2cc(Cl)ccc2OCCn2c(C)nc3c(c2=O)CC(N2CCCCC2)CC3)c2scc(C(=O)O)c2n1` (single isomer, unassigned) [Compound 250], the IC50 at human eIF4E protein is below 0.1 µM; in experiment [1] (setting [3]), below 1 µM; in experiment [2] it was below 5 µM.
With `COC1CCc2nc(C)n(CCOc3ccc(Cl)cc3-c3cc(C)nc4c(C(=O)O)csc34)c(=O)c2C1` (single isomer, unassigned) [Compound 6], the IC50 at human eIF4E protein lay within 0.1 to 0.5 µM; in experiment [1] (setting [5]), 1 to 5 µM; in experiment [2] (Homo sapiens), 5 to 20 µM.
Regarding `Cc1cc(-c2cc(Cl)ccc2OCCn2c(C)nc3c(c2=O)CC(N2CCN(C)CC2)CC3)c2scc(C(=O)O)c2n1` (stereo not drawn) [Compound 10], the figures for the IC50 (at human eIF4E protein; in experiment [1] (setting [6]); in experiment [2] (Homo sapiens)) were below 0.1 µM, 1 to 5 µM and 5 to 20 µM, respectively.
In the case of `COC(=O)c1csc2c(-c3cc(Cl)ccc3OCCn3c(C)nc4c(c3=O)CC(N(C3CC3)C3CC3)CC4)cc(C)nc12` (stereo not drawn) [Compound 339], the IC50 at human eIF4E protein is 0.5 to 5 µM; in experiment [1] (setting [4]) it was above 5 µM; in experiment [2] (Homo sapiens, COLO 205, 72 h), 5 to 20 µM.
